Where “and” joins values, the source holds several entries; their conditions need not be identical. Equal entries are not always repeated.
Assays:
human H4R W348Y mutant = target: T1, human H4R W348Y mutant (Homo sapiens, UniProt Q9H3N8, W348Y); assay: TGFα shedding assay, H4R W348Y mutant; assay type: cell-based
T1 construct: a mutant H4R (human, full-length, and untagged); expressed in transfected cells; host or cells: HEK293A
Method: (§1) The mutants were prepared using the primers listed in Supplementary Table 2. […] The chimeric Gαq/i1 subunit comprises the Gαq backbone and Gαi1-derived six-amino acid C-terminus and couples with Gi-coupled H4R but induces a Gq-dependent TGFα shedding response. After culturing for 1 day and incubating at 37 °C in a 5% CO2 incubator, the transfected cells were harvested by trypsinization, neutralized with Dulbecco’s modified Eagle’s medium containing 10% fetal calf serum (FCS) and penicillin–streptomycin, washed once with Hank’s balanced salt solution (HBSS) containing 5 mM of HEPES (pH 7.4), and resuspended in 6 mL of the HEPES-containing HBSS. The cell suspension was seeded into a 96-well plate at a volume of […] per well (typically, 48 wells per transfected cells) and incubated for 30 min in the CO2 incubator. Test compounds (10×, diluted in 0.01% BSA and 5 mM of HEPES-containing HBSS, […] volume) were added to duplicate wells and incubated for 1 h. After centrifugation, the conditioned medium ([…]) was transferred to an empty 96-well plate. AP reaction solution [10 mM of p-nitrophenylphosphate (p-NPP), 120 mM of Tris–HCl (pH 9.5), 40 mM of NaCl, and 10 mM of MgCl2] was dispensed into the cell culture plates and plates containing conditioned media ([…]). Absorbance was measured at 405 nm before and after a 1-h incubation period at 25 °C using a microplate reader (iMark™ Microplate Absorbance Reader; BioRad). Ligand-induced AP-TGFα release was calculated as previously described. The vehicle-treated AP-TGFα release signal was set as a baseline unless otherwise specified. AP-TGFα release signals were fitted with a four-parameter sigmoidal concentration-response curve, from which EC50 and Emax values were obtained, using GraphPad Prism 9 software (GraphPad Prism). Negative values of logarithmically transformed EC50 values (pEC50) were used to calculate the mean and standard error of independent experiments.
(§2) All functional study data were analyzed using Prism 9 (GraphPad) and are presented as mean ± standard error of the mean (SEM) of three independent experiments. […]

human H4R Y95A mutant = target: T2, human H4R Y95A mutant (Homo sapiens, UniProt Q9H3N8, Y95A); assay: TGFα shedding assay, H4R Y95A mutant; assay type: cell-based
T2 construct: a mutant H4R (human, full-length, and untagged); expressed in transfected cells; host or cells: HEK293A
T2 sequence (Q9H3N8 whole entry Y95A): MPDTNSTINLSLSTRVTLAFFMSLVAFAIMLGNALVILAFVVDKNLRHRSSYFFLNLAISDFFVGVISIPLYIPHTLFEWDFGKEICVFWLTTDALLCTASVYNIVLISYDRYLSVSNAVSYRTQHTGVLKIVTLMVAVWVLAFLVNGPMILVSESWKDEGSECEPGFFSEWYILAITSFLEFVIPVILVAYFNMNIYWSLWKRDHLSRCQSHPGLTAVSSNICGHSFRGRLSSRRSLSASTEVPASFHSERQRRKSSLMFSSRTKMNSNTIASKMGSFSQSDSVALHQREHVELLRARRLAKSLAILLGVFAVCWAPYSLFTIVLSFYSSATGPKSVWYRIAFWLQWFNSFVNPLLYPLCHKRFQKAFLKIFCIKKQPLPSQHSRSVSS
Method: as §1, §2

H2R = conditions: in words; cited from earlier work
human H4R W348A mutant = target: T3, human H4R W348A mutant (Homo sapiens, UniProt Q9H3N8, W348A); assay: TGFα shedding assay, H4R W348A mutant; assay type: cell-based
T3 construct: a mutant H4R (human, full-length, and untagged); expressed in transfected cells; host or cells: HEK293A
T3 sequence (Q9H3N8 whole entry W348A): as the sequence (Q9H3N8 whole entry Y95A) above, with A95Y, W348A counted along it
Method: as §1, §2

human H4R F344A mutant = target: T4, human H4R F344A mutant (Homo sapiens, UniProt Q9H3N8, F344A); assay: TGFα shedding assay, H4R F344A mutant; assay type: cell-based
T4 construct: a mutant H4R (human, full-length, and untagged); expressed in transfected cells; host or cells: HEK293A
T4 sequence (Q9H3N8 whole entry F344A): as the sequence (Q9H3N8 whole entry Y95A) above, with A95Y, F344A counted along it
Method: The mutants were prepared using the primers listed in Supplementary Table 2. […] The chimeric Gαq/i1 subunit comprises the Gαq backbone and Gαi1-derived six-amino acid C-terminus and couples with Gi-coupled H4R but induces a Gq-dependent TGFα shedding response. After culturing for 1 day and incubating at 37 °C in a 5% CO2 incubator, the transfected cells were harvested by trypsinization, neutralized with Dulbecco’s modified Eagle’s medium containing 10% fetal calf serum (FCS) and penicillin–streptomycin, washed once with Hank’s balanced salt solution (HBSS) containing 5 mM of HEPES (pH 7.4), and resuspended in 6 mL of the HEPES-containing HBSS. The cell suspension was seeded into a 96-well plate at a volume of […] per well (typically, 48 wells per transfected cells) and incubated for 30 min in the CO2 incubator. Test compounds (10×, diluted in 0.01% BSA and 5 mM of HEPES-containing HBSS, […] volume) were added to duplicate wells and incubated for 1 h. […] Absorbance was measured at 405 nm before and after a 1-h incubation period at 25 °C using a microplate reader (iMark™ Microplate Absorbance Reader; BioRad). Ligand-induced AP-TGFα release was calculated as previously described. […]
as §2

[1] = Imetit (M) -5 (log concentration), raw replicate values

T1 sequence (Q9H3N8 whole entry W348Y): as the sequence (Q9H3N8 whole entry Y95A) above, with A95Y, W348Y counted along it

Question: With `N=C(N)SCCc1cnc[nH]1` [Imetit, imetit] as the compound, how does the EC50 (human H4R W348Y mutant) read?
Answer: > 10 µM

Question: And the “Shedding assay response, W348Y” value (human H4R W348Y mutant; [1])?
Answer: 5.993 and 7.639 and 4.713 and 7.402 and 9.589 and 3.141 and 9.854 and 11.9801 and 8.402

Question: And the “signaling activity at mutant, in words” value (human H4R W348Y mutant; W348Y (H1R mimic) mutant vs wild type)?
Answer: loss of imetit activity

Question: What about the EC50 (human H4R Y95A mutant) of the same compound?
Answer: > 10 µM

Question: What about the “Shedding assay response, Y95A” value (human H4R Y95A mutant; [1]) of the same compound?
Answer: 0.2008 and 4.141 and 6.475 and 5.892 and -1.081 and 3.761 and 1.333 and 3.151 and 12.3655

Question: And the “binding to H2R” value (H2R)?
Answer: does not bind

Question: And the EC50 (human H4R W348A mutant)?
Answer: > 10 µM

Question: And the “Shedding assay response, W348A” value (human H4R W348A mutant; [1])?
Answer: 2.59 and 2.574 and 7.329 and -2.233 and 0.1771 and -0.5753 and 0.3498 and -1.339 and 0.3261

Question: What about the EC50 (human H4R F344A mutant) of the same compound?
Answer: > 10 µM

Question: What about the “Shedding assay response, F344A” value (human H4R F344A mutant; [1]) of the same compound?
Answer: 3.594 and 4.917 and 1.113 and -1.672 and 3.266 and -0.2412 and 0.127 and -2.198 and -1.529
